Measured values as given in US10947242B2, “[1,2,4]triazolo[1,5and#8208;A]pyrimidine compounds as PDE2 inhibitors” (Janssen Pharmaceutica NV, priority 2016, dated 2021).
Where two headings read alike, the source gives them in different places.

Legend:
PDE2A = target: T1, PDE2A (Rattus norvegicus, UniProt Q01062); experiment: PDE2 occupancy by test compounds, ex-vivo autoradiography with [3H]B-17a; format: in vivo, Male Wistar rats; settings: for receptor occupancy at 10 mg/kg: percentage receptor occupancy, ex-vivo autoradiography, striatum; for ED50: read-out: PDE Occupancy ED50
T1 construct: Twenty μm-thick striatal sections were cut; from tissue; host or cells: rat brain, striatal sections
T1 sequence (Q01062 1-928): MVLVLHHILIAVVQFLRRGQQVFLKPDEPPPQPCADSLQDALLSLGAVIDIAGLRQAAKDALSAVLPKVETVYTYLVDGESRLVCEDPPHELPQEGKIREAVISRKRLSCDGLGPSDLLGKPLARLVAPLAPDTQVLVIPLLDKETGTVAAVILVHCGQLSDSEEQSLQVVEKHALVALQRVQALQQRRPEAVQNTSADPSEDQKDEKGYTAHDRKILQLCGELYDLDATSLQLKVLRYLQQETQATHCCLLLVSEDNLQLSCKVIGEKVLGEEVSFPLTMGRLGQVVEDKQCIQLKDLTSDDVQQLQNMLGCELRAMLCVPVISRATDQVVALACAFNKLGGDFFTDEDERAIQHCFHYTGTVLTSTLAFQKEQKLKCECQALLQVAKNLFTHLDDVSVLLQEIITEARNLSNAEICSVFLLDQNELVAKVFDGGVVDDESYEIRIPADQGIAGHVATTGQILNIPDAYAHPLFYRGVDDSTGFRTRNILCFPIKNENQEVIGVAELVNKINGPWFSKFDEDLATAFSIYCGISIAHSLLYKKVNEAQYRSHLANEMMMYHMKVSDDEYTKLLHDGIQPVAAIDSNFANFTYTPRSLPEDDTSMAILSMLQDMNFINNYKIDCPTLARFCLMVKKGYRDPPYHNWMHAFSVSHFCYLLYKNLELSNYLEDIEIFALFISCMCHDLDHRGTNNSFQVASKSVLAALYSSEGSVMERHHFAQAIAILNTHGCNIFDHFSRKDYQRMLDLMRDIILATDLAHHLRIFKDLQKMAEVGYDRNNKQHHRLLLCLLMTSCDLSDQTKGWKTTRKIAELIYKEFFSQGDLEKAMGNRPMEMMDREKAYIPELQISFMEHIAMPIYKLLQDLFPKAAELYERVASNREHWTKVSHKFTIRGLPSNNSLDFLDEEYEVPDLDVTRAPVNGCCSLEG

[1] = target: T2, Human recombinant PDE10A (hPDE10A) (Homo sapiens, UniProt Q9Y233); experiment: In vitro assay PDE10A, human clone (SPA, 3H-cAMP hydrolysis); format: biochemical
T2 construct: His tag (inferred from metal chelate purification); made in house; host or cells: Sf9 insect cells (baculovirus)
T2 sequence (Q9Y233 267-1055): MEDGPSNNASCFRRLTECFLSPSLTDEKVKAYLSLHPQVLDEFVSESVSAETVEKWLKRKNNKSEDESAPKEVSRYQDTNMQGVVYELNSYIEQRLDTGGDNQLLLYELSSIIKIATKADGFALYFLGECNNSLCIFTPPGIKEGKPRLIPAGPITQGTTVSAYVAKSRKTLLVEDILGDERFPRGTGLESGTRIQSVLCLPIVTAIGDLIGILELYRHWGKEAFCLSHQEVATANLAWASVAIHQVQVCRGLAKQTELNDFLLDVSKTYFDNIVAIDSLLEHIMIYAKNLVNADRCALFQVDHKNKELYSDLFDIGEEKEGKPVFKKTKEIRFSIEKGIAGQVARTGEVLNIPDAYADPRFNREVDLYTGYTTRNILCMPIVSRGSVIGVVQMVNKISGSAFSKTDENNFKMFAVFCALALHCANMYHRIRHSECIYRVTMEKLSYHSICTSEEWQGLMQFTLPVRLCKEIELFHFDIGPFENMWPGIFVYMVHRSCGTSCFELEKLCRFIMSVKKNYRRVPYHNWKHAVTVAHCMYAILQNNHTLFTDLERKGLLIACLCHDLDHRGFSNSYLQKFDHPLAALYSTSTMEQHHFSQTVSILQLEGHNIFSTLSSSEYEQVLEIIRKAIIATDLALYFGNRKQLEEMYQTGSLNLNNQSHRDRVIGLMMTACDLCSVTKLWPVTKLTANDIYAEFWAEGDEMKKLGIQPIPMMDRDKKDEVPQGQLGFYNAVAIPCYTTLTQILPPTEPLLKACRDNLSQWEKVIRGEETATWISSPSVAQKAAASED
Procedure, shortened: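 Human recombinant PDE10A was expressed in Sf9 cells via baculovirus and incubated with compound in 50 mM Tris pH 7.8, 8.3 mM MgCl2, 1.7 mM EGTA. Substrate was 60 nM cAMP plus 0.008 μCi 3H-cAMP for 60 min at room temperature, read by SPA scintillation counting. Controls used 1% DMSO, and blanks omitted enzyme.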

[2] = target: T3, Human recombinant PDE3A (hPDE3A) (Homo sapiens, UniProt Q14432); experiment: In vitro assay PDE3A (SPA, 3H-cAMP hydrolysis); format: biochemical; settings: for IC50: hPDE3B pIC50, read-out: pIC50 (converted); for Emax: read-out: hPDE3B Emax, read-out: Emax;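 as to all read-outs here: the method names PDE3A and the table heading PDE3B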
T3 construct: purchased Scottish Biomedical; host or cells: Sf9 insect cells
T3 sequence (Q14432 whole entry): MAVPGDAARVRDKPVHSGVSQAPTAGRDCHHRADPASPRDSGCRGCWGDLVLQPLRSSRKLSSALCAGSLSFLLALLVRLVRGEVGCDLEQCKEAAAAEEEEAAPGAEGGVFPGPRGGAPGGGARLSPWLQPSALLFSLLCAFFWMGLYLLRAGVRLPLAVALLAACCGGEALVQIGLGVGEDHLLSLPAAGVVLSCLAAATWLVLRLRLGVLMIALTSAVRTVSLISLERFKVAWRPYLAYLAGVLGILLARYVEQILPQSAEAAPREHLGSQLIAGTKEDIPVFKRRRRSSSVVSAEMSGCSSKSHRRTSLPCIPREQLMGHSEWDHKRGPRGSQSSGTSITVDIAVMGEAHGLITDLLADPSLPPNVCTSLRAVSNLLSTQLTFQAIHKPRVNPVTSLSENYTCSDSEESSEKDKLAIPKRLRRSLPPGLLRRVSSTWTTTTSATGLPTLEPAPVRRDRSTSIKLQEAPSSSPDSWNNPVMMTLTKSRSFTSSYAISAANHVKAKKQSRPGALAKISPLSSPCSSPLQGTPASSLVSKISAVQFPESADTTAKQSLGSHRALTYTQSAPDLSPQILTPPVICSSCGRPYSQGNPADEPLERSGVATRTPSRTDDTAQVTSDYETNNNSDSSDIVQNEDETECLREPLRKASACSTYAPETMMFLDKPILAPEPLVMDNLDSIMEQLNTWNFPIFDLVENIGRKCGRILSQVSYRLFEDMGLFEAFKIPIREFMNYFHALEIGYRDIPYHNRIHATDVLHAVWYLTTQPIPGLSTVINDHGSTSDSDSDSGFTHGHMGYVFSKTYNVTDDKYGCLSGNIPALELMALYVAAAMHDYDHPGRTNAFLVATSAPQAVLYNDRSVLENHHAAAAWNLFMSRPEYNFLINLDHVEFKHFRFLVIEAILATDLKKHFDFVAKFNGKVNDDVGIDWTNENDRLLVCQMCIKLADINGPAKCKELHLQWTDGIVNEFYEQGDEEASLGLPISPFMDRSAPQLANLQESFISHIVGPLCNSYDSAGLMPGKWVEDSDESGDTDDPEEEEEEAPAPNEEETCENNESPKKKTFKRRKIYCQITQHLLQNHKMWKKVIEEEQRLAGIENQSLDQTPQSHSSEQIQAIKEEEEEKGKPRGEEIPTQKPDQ
Procedure, shortened: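 Human PDE3A, cloned from brain, as partially purified Sf9 lysate. Substrate 0.4 μM cAMP plus [3H]-cAMP (2.4 μCi/ml final) in 50 mM Tris pH 7.8, 8.3 mM MgCl2, 1.7 mM EGTA, 60 min at room temperature, 1% DMSO final. Hydrolysis read by SPA scintillation counting against no-enzyme blanks and DMSO controls.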

[3] = target: T4, Human recombinant PDE2A (hPDE2A) (Homo sapiens, UniProt O00408); experiment: In vitro assay PDE2A (SPA, 3H-cGMP hydrolysis); format: biochemical; settings: for Emax: read-out: hPDE2A Emax
T4 construct: His tag (inferred from metal chelate purification); made in house; host or cells: Sf9 insect cells (baculovirus)
T4 sequence (O00408 whole entry): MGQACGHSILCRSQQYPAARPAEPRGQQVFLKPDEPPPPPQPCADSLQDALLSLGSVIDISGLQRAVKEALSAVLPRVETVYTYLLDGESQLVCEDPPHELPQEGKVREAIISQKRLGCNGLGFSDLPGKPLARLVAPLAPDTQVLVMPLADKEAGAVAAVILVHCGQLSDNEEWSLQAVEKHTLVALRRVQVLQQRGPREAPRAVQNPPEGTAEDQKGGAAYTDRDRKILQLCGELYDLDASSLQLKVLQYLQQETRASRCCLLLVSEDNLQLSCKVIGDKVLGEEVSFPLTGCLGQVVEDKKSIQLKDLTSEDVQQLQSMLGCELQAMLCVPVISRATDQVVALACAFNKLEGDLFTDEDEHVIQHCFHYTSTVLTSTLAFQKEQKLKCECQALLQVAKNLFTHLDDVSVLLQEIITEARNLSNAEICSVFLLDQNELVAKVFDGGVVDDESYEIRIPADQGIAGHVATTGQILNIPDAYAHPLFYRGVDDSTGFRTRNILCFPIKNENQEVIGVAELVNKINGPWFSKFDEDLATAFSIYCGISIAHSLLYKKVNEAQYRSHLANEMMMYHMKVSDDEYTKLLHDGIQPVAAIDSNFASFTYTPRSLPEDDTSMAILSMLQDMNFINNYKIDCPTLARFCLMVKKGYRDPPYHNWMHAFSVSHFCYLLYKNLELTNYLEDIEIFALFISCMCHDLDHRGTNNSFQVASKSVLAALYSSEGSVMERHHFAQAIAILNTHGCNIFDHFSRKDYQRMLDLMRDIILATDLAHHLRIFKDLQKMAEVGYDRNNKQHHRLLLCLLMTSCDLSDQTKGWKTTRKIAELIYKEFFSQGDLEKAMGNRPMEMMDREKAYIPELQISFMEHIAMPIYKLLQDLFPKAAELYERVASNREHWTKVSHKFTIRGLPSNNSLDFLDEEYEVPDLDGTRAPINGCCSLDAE

[4] = human clone (h), default, read-out: hPDE10A2 Emax
[5] = human clone (h), default, read-out: hPDE10A2 pIC50 (converted)
[6] = human recombinant PDE2A, 10 μM cGMP substrate, read-out: hPDE2A pIC50 (converted)
[7] = read-out: hPDE2A pIC50 (converted)
[8] = human clone by default (no (r) mark), read-out: hPDE10A2 or rPDE10A2 Emax
[9] = human clone by default (no (r) mark), read-out: hPDE10A2 or rPDE10A2 pIC50 (converted)
[10] = hPDE2A pIC50, human recombinant PDE2A, 10 μM cGMP substrate

Row | Compound | receptor occupancy at 10 mg/kg (PDE2A; po, route PO (oral)) [%] | Emax [1, 4] [%] | IC50 [1, 5] [nM] | IC50 [2] [nM] | Emax [2] [%] | IC50 [3, 6] [nM] | Emax ([3]; human recombinant PDE2A) [%] | Emax [3] [%] | IC50 [3, 7] [nM] | receptor occupancy at 10 mg/kg (PDE2A; route PO (oral)) [%] | Emax [1, 8] [%] | IC50 [1, 9] [nM] | ED50 (PDE2A; route PO (oral), drug dose producing 50% receptor occupancy) [mg/kg] | receptor occupancy at 10 mg/kg (PDE2A; sc, route SC (subcutaneous)) [%] | receptor occupancy at 10 mg/kg (PDE2A; route SC (subcutaneous)) [%] | ED50 (PDE2A; po) [mg/kg] | IC50 ([3]; hPDE2A pIC50) [nM] | IC50 [3, 10] [nM]
1 | C[C@@H]1CCN(C(=O)c2ccc(Cl)c(OC(F)F)c2)C[C@H]1c1cc(C(F)F)nc2ncnn12 [Compound 121] | -15 | 96 | 58.9 | 513 | 95 | 1.78 | 99 | 99 | 1.78 |  |  |  |  |  |  |  |  | 
2 | O=C(c1cc(OC(F)F)cc(C2CC2)c1)N1[C@H]2CC[C@H](c3cc(C(F)F)nc4ncnn34)[C@@H]1CC2 [Compound 352] |  |  |  | 1820 | 89 |  |  | 100 | 7.59 | 16 | 99 | 479 |  |  |  |  |  | 
3 | C[C@@H]1CCN(C(=O)c2nc3ccccc3o2)C[C@H]1c1cc(C(F)F)nc2ncnn12 [Compound 47] | 5 | 92 | 646 | 3390 | 80 | 2.51 | 99 | 99 | 2.51 |  |  |  |  |  |  |  |  | 
4 | CCc1cc(C(=O)N2CC[C@@H](C)[C@H](c3cc(C(F)F)nc4ncnn34)C2)cc(C)n1 [Compound 80] |  | 98 | 81.3 | 4170 | 71 | 0.794 | 100 | 100 | 0.794 |  |  |  | 8.63 | 52 |  |  |  | 
5 | Cc1cc(C(=O)N2C3CCC2[C@@H](c2cc(C(F)F)nc4ncnn24)CC3)cc(C2CC2)n1 (stereo partly drawn) [Compound 28] |  | 95 | 447 | > 10000 | 17 | 0.955 | 101 | 101 | 0.955 |  |  |  |  |  | 49 | 25 |  | 
6 | Cc1cc(C(=O)N2[C@H]3CC[C@@H]2[C@H](c2cc(C(F)F)nc4ncnn24)CC3)cc(C)n1 [Compound 30] |  | 32 | > 10000 | > 10000 | 8 | 3550 | 77 | 77 | 3550 |  |  |  |  |  | 0 |  |  | 
7 | CCCC[C@H]1CCN(C(=O)c2cc(C)nc(C)c2)C[C@@H]1c1cc(C(F)F)nc2ncnn12 (single isomer, unassigned) [Compound 46] | -9 | 86 | 2240 | > 10000 | 5 | 15.1 | 100 | 100 | 15.1 |  |  |  |  |  |  |  |  | 
8 | C[C@@H]1CCN(C(=O)c2cc(Cl)ncc2F)C[C@H]1c1cc(C(F)F)nc2ncnn12 [Compound 54] | 39 | 89 | 661 | 9550 | 51 | 4.17 | 100 | 100 | 4.17 |  |  |  |  |  |  |  |  | 
9 | Cc1cc([C@@H]2CN(C(=O)c3ccc4occc4c3)CC[C@H]2C)n2ncnc2n1 [Compound 6] | 67 | 100 | 17.8 | 676 | 97 |  |  | 99 |  |  |  |  |  |  |  |  | 1.62 | 1.62
10 | C[C@@H]1CCN(C(=O)c2cc(C3CC3)ncc2F)C[C@@]1(F)c1cc(C(F)F)nc2ncnn12 [Compound 277] | -4 |  |  | > 10000 | 14 |  |  | 99 | 75.9 |  | 27 | > 10000 |  |  |  |  |  | 
11 | Cc1cc(C(=O)N2CC[C@@H](C)[C@H](c3cc(C(F)F)nc4ncnn34)C2)c(F)c(C2CC2)n1 [Compound 278] | 30 |  |  | 708 | 97 |  |  | 99 | 0.933 |  | 99 | 145 |  |  |  |  |  | 
12 | Cc1nc2cccc(C(=O)N3CC[C@@H](C)[C@H](c4cc(C(F)F)nc5ncnn45)C3)c2o1 [Compound 50] | -30 | 93 | 724 | > 10000 | 61 | 3.09 | 100 | 100 | 3.09 |  |  |  |  |  |  |  |  | 
13 | O=C(c1ccc2ccccc2c1)N1[C@H]2CC[C@H](c3cc(C(F)F)nc4ncnn34)[C@@H]1CC2 [Compound 319] |  |  |  | 1020 | 95 |  |  | 100 | 1.12 | 37 | 99 | 263 |  |  |  |  |  | 
14 | Cc1cc([C@@H]2CN(C(=O)c3cc4cccnc4nc3C(F)(F)F)CC[C@H]2C)n2ncnc2n1 [Compound 13] | 2 | 95 | 347 | > 10000 | 38 | 10.5 | 100 | 100 | 10.5 |  |  |  |  |  |  |  |  | 
15 | Cc1nn(C)c2sc(C(=O)N3[C@H]4CC[C@H](c5cc(C(F)F)nc6ncnn56)[C@@H]3CC4)cc12 [Compound 335] |  |  |  | 7240 | 52 |  |  | 102 | 0.955 | 88 | 98 | 87.1 |  |  |  | 0.985 |  | 
16 | Cc1cc(C(=O)N2CC[C@@H](C)[C@H](c3cc(C)nc4ncnn34)C2)cc(C(F)(F)F)n1 [Compound 4] | 9 | 99 | 24 | 5750 | 70 |  |  | 100 |  |  |  |  |  |  |  |  | 1.45 | 1.45
17 | COc1cc(C(=O)N2CC[C@@H](C)[C@H](c3cc(C(F)F)nc4ncnn34)C2)c(F)c(C)n1 [Compound 398] | 29 |  |  | 5250 | 67 |  |  | 99 | 4.9 |  | 95 | 589 |  |  |  |  |  | 
18 | Cn1c(C(=O)N2[C@H]3CC[C@H](c4cc(C(F)F)nc5ncnn45)[C@@H]2CC3)cc2ccccc21 [Compound 300] |  |  |  | 2000 | 88 |  |  | 100 | 6.46 | -11 | 80 | 2880 |  |  |  |  |  | 
19 | Cc1ccc2cc(C(=O)N3CC[C@@H](C)[C@H](c4cc(C(F)F)nc5ncnn45)C3)c(C)nc2c1 [Compound 60] | 32 | 97 | 151 | 1100 | 92 | 0.851 | 100 | 100 | 0.851 |  |  |  |  |  |  |  |  | 
20 | Cc1cc(Cl)cc(C(=O)N2[C@H]3CC[C@H](c4cc(C(F)F)nc5ncnn45)[C@@H]2CC3)c1 [Compound 339] |  |  |  | 4790 | 69 |  |  | 101 | 6.61 | -1 | 95 | 617 |  |  |  |  |  | 
